Reference: ChEMBL document CHEMBL1201862, “PubChem BioAssay data set” (2004)
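Method: 48-hour compound exposure of cells in 96-well plates, five concentrations, linear interpolation of endpoints. At the GI50, growth is halved.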 Active and inactive are the calls of the source. Cut-off read from the data, not from the text of the source: active = GI50 up to about 1.1 µM and inactive = higher.

What was measured:
Assay in all cases: NCI tumour cell line growth inhibition, 48 h
NCI-H460 = system: NCI-H460
Malme-3M = system: Malme-3M
UACC-257 = system: UACC-257
OVCAR-4 = system: OVCAR-4
CCRF-CEM = system: CCRF-CEM
SN12C = system: SN12C
MCF7 = system: MCF7
HOP-62 = system: HOP-62
NCI/ADR-RES = system: NCI/ADR-RES
A498 = system: A498
Hs-578T = system: Hs-578T
HCT-15 = system: HCT-15
NCI-H522 = system: NCI-H522
ACHN = system: ACHN
HCC 2998 = system: HCC 2998
HOP-92 = system: HOP-92
SF-295 = system: SF-295
SK-MEL-2 = system: SK-MEL-2
OVCAR-3 = system: OVCAR-3
OVCAR-8 = system: OVCAR-8
SNB-19 = system: SNB-19
TK-10 = system: TK-10
M14 = system: M14
U-251 = system: U-251
NCI-H23 = system: NCI-H23
UACC-62 = system: UACC-62
MOLT-4 = system: MOLT-4
HCT-116 = system: HCT-116
KM12 = system: KM12
UO-31 = system: UO-31
CAKI-1 = system: CAKI-1
SW-620 = system: SW-620
MDA-MB-435 = system: MDA-MB-435
DU-145 = system: DU-145
MDA-MB-231 = system: MDA-MB-231
SK-MEL-28 = system: SK-MEL-28
COLO 205 = system: COLO 205
786-0 = system: 786-0
RPMI-8226 = system: RPMI-8226
PC-3 = system: PC-3
T47D = system: T47D
SF-268 = system: SF-268
IGROV-1 = system: IGROV-1
HT-29 = system: HT-29
BT-549 = system: BT-549
LOX IMVI = system: LOX IMVI
A549 = system: A549
SK-MEL-5 = system: SK-MEL-5
SF-539 = system: SF-539
SNB-75 = system: SNB-75
SR = system: SR
MDA-N = system: MDA-N
EKVX = system: EKVX
OVCAR-5 = system: OVCAR-5
HL-60 = system: HL-60
K562 = system: K562
RXF 393 = system: RXF 393
NCI-H226 = system: NCI-H226
SK-OV-3 = system: SK-OV-3

Compound: CCOC(=O)C1C(c2ccc(OC)cc2)c2c(n[nH]c2O)CC1(C)O (configuration not stated)
- GI50 (NCI-H460): > 100 µM (inactive)
- GI50 (Malme-3M): > 100 µM (inactive)
- GI50 (UACC-257): > 100 µM (inactive)
- GI50 (OVCAR-4): > 100 µM (inactive)
- GI50 (CCRF-CEM): > 100 µM (inactive)
- GI50 (SN12C): > 100 µM (inactive)
- GI50 (MCF7): > 100 µM (inactive)
- GI50 (HOP-62): > 100 µM (inactive)
- GI50 (NCI/ADR-RES): > 100 µM (inactive)
- GI50 (A498): > 100 µM (inactive)
- GI50 (Hs-578T): > 100 µM (inactive)
- GI50 (HCT-15): > 100 µM
- GI50 (NCI-H522): > 100 µM (inactive)
- GI50 (ACHN): > 100 µM (inactive)
- GI50 (HCC 2998): > 100 µM (inactive)
- GI50 (HOP-92): > 100 µM (inactive)
- GI50 (SF-295): 45.1 µM (inactive)
- GI50 (SK-MEL-2): > 100 µM (inactive)
- GI50 (OVCAR-3): > 100 µM (inactive)
- GI50 (OVCAR-8): > 100 µM (inactive)
- GI50 (SNB-19): > 100 µM (inactive)
- GI50 (TK-10): > 100 µM (inactive)
- GI50 (M14): > 100 µM (inactive)
- GI50 (U-251): > 100 µM (inactive)
- GI50 (NCI-H23): > 100 µM (inactive)
- GI50 (UACC-62): > 100 µM (inactive)
- GI50 (MOLT-4): > 100 µM (inactive)
- GI50 (HCT-116): > 100 µM (inactive)
- GI50 (KM12): > 100 µM (inactive)
- GI50 (UO-31): > 100 µM (inactive)
- GI50 (CAKI-1): > 100 µM (inactive)
- GI50 (SW-620): > 100 µM (inactive)
- GI50 (MDA-MB-435): > 100 µM (inactive)
- GI50 (DU-145): > 100 µM (inactive)
- GI50 (MDA-MB-231): > 100 µM (inactive)
- GI50 (SK-MEL-28): > 100 µM (inactive)
- GI50 (COLO 205): > 100 µM (inactive)
- GI50 (786-0): > 100 µM (inactive)
- GI50 (RPMI-8226): > 100 µM (inactive)
- GI50 (PC-3): > 100 µM (inactive)
- GI50 (T47D): > 100 µM (inactive)
- GI50 (SF-268): > 100 µM (inactive)
- GI50 (IGROV-1): > 100 µM (inactive)
- GI50 (HT-29): > 100 µM (inactive)
- GI50 (BT-549): > 100 µM (inactive)
- GI50 (LOX IMVI): > 100 µM (inactive)
- GI50 (A549): > 100 µM (inactive)
- GI50 (SK-MEL-5): > 100 µM (inactive)
- GI50 (SF-539): > 100 µM (inactive)
- GI50 (SNB-75): > 100 µM (inactive)
- GI50 (SR): > 100 µM (inactive)
- GI50 (MDA-N): > 100 µM (inactive)
- GI50 (EKVX): > 100 µM (inactive)
- GI50 (OVCAR-5): > 100 µM (inactive)
- GI50 (HL-60): > 100 µM (inactive)

Compound: COc1cc(C(O)CCBr)c(OC)cc1C (configuration not stated)
- GI50 (NCI-H460): 30.5 µM (inactive)
- GI50 (Malme-3M): 22.5 µM (inactive)
- GI50 (UACC-257): 27.7 µM (inactive)
- GI50 (K562): 3.61 µM (inactive)
- GI50 (OVCAR-4): 52.8 µM (inactive)
- GI50 (CCRF-CEM): 3.07 µM (inactive)
- GI50 (SN12C): 16.4 µM (inactive)
- GI50 (MCF7): 4.37 µM (inactive)
- GI50 (HOP-62): 28.6 µM (inactive)
- GI50 (NCI/ADR-RES): 7.43 µM (inactive)
- GI50 (A498): > 64.6 µM (inactive)
- GI50 (Hs-578T): 25.1 µM (inactive)
- GI50 (HCT-15): 7.4 µM
- GI50 (NCI-H522): 27.5 µM (inactive)
- GI50 (ACHN): 35.7 µM (inactive)
- GI50 (HOP-92): 23.6 µM (inactive)
- GI50 (SF-295): 36 µM (inactive)
- GI50 (SK-MEL-2): 16 µM (inactive)
- GI50 (OVCAR-3): 13.4 µM (inactive)
- GI50 (OVCAR-8): 6.97 µM (inactive)
- GI50 (SNB-19): > 75.5 µM (inactive)
- GI50 (TK-10): > 66.8 µM (inactive)
- GI50 (M14): 4.6 µM (inactive)
- GI50 (U-251): 33.2 µM (inactive)
- GI50 (NCI-H23): 14.3 µM (inactive)
- GI50 (UACC-62): 14.6 µM (inactive)
- GI50 (HCT-116): 3.93 µM (inactive)
- GI50 (KM12): 29.9 µM (inactive)
- GI50 (UO-31): 26.3 µM (inactive)
- GI50 (CAKI-1): 14.9 µM (inactive)
- GI50 (SW-620): 3.13 µM (inactive)
- GI50 (MDA-MB-435): 4.3 µM (inactive)
- GI50 (DU-145): 43.2 µM (inactive)
- GI50 (MDA-MB-231): 21.2 µM (inactive)
- GI50 (SK-MEL-28): 24.4 µM (inactive)
- GI50 (COLO 205): 17.6 µM (inactive)
- GI50 (RXF 393): 37.2 µM (inactive)
- GI50 (786-0): 8.32 µM (inactive)
- GI50 (RPMI-8226): 6.73 µM (inactive)
- GI50 (PC-3): 6.65 µM (inactive)
- GI50 (T47D): > 72.1 µM (inactive)
- GI50 (SF-268): 31.4 µM (inactive)
- GI50 (IGROV-1): 24.4 µM (inactive)
- GI50 (NCI-H226): 32.9 µM (inactive)
- GI50 (HT-29): 6.17 µM (inactive)
- GI50 (SK-OV-3): 35.3 µM (inactive)
- GI50 (BT-549): 23 µM (inactive)
- GI50 (LOX IMVI): 8.95 µM (inactive)
- GI50 (A549): > 100 µM (inactive)
- GI50 (SK-MEL-5): 6.18 µM (inactive)
- GI50 (SF-539): 8.17 µM (inactive)
- GI50 (SNB-75): 30.1 µM (inactive)
- GI50 (SR): 13 µM (inactive)
- GI50 (MDA-N): 2.79 µM (inactive)
- GI50 (EKVX): > 100 µM (inactive)
- GI50 (OVCAR-5): > 47.1 µM (inactive)
- GI50 (HL-60): > 24.7 µM (inactive)
